Species: Rattus norvegicus
Assay: Open TG-GATES - Regimen: Single
Format: toxicity, organism-based, Sprague-Dawley
Design: regimen Single, gender Male, age 6 weeks
Settings: in vivo, po, 1000 mg/kg, route gavage, dose level High; for APTT / Bas / Eos / Fbg / Hb / Ht / Lym / MCH / MCHC / MCV / Mono / Neu / PT / Plat / RBC / Ret / WBC: tissue Blood; for KIDNEY_L / KIDNEY_R / KIDNEY_TOTAL: tissue Kidney; for LIVER: tissue Liver; for A/G / ALP / ALT / AST / BUN / CRE / Ca / Cl / DBIL / GLC / IP / K / LDH / Na / PL / RALB / TBIL / TC / TG / TP / gamma-GTP: tissue Plasma

Work on `O=C(OC[C@H]1O[C@@H](OC(=O)c2cc(O)c(O)c(OC(=O)c3cc(O)c(O)c(O)c3)c2)[C@H](OC(=O)c2cc(O)c(O)c(OC(=O)c3cc(O)c(O)c(O)c3)c2)[C@@H](OC(=O)c2cc(O)c(O)c(OC(=O)c3cc(O)c(O)c(O)c3)c2)[C@@H]1OC(=O)c1cc(O)c(O)c(OC(=O)c2cc(O)c(O)c(O)c2)c1)c1cc(O)c(O)c(OC(=O)c2cc(O)c(O)c(O)c2)c1` [TANNIC ACID] yielded a TERMINAL_BW (3 h) of 189.4 g, an APTT (3 h) of 17.2 s and a Bas (3 h) of 0%. The Eos (3 h) was 1%, the Fbg (3 h) was 221.2 mg/dL and the Hb (3 h) was 13 g/dL. The Ht (3 h) was 38.9%, the Lym (3 h) was 81.6% and the MCH (3 h) was 21.7 pg. The MCHC (3 h) was 33.3%, the MCV (3 h) was 65.1 fL and the Mono (3 h) was 4.8%. It also gave a Neu (3 h) of 12.8%, a PT (3 h) of 11.9 s and a Plat (3 h) of 110.6 x10_4/uL. The RBC (3 h) was 597.4 x10_4/ul, the Ret (3 h) was 10.3% and the WBC (3 h) was 104.1 x10_2/uL. For the same molecule, the KIDNEY_L (3 h) was 0.9 g, the KIDNEY_R (3 h) was 0.9 g and the KIDNEY_TOTAL (3 h) was 1.8 g. For the same molecule, the LIVER (3 h) was 8.5 g, the A/G (3 h) was 2 and the ALP (3 h) was 805 IU/L. It also gave an ALT (3 h) of 39.6 IU/L, an AST (3 h) of 69.6 IU/L and a BUN (3 h) of 12.2 mg/dL. It also gave a CRE (3 h) of 0.4 mg/dL, a Ca (3 h) of 10.8 mg/dL and a Cl (3 h) of 104.6 meq/L. For the same molecule, the DBIL (3 h) was 0.016 mg/dL, the GLC (3 h) was 191.4 mg/dL and the IP (3 h) was 10.2 mg/dL. For the same molecule, the K (3 h) was 4.9 meq/L, the LDH (3 h) was 101.8 IU/L and the Na (3 h) was 138.2 meq/L. It also gave a PL (3 h) of 128.2 mg/dL, an RALB (3 h) of 3.7 g/dL and a TBIL (3 h) of 0.5 mg/dL. The TC (3 h) was 72.8 mg/dL, the TG (3 h) was 35.8 mg/dL and the TP (3 h) was 5.5 g/dL. For the same molecule, the gamma-GTP (3 h) was 1.2 IU/L, the TERMINAL_BW (6 h) was 183.9 g and the APTT (6 h) was 16.7 s. For the same molecule, the Bas (6 h) was 0%, the Eos (6 h) was 1% and the Fbg (6 h) was 211 mg/dL. The Hb (6 h) was 13.5 g/dL, the Ht (6 h) was 40.6% and the Lym (6 h) was 76.2%. For the same molecule, the MCH (6 h) was 22 pg, the MCHC (6 h) was 33.3% and the MCV (6 h) was 66.1 fL. For the same molecule, the Mono (6 h) was 7%, the Neu (6 h) was 16.2% and the PT (6 h) was 12 s. For the same molecule, the Plat (6 h) was 115.1 x10_4/uL, the RBC (6 h) was 613.8 x10_4/ul and the Ret (6 h) was 9.7%. It also gave a WBC (6 h) of 101 x10_2/uL, a KIDNEY_L (6 h) of 0.9 g and a KIDNEY_R (6 h) of 0.9 g. For the same molecule, the KIDNEY_TOTAL (6 h) was 1.8 g, the LIVER (6 h) was 7.5 g and the A/G (6 h) was 1.8. The ALP (6 h) was 682.8 IU/L, the ALT (6 h) was 41.4 IU/L and the AST (6 h) was 68.8 IU/L. It also gave a BUN (6 h) of 11.4 mg/dL, a CRE (6 h) of 0.4 mg/dL and a Ca (6 h) of 10.6 mg/dL. It also gave a Cl (6 h) of 105.8 meq/L, a DBIL (6 h) of 0.008 mg/dL and a GLC (6 h) of 183.4 mg/dL. The IP (6 h) was 11 mg/dL, the K (6 h) was 5 meq/L and the LDH (6 h) was 81.4 IU/L. The Na (6 h) was 138.8 meq/L, the PL (6 h) was 113.6 mg/dL and the RALB (6 h) was 3.4 g/dL. The TBIL (6 h) was 0.7 mg/dL, the TC (6 h) was 65.2 mg/dL and the TG (6 h) was 22.2 mg/dL. The TP (6 h) was 5.3 g/dL, the gamma-GTP (6 h) was 1.2 IU/L and the TERMINAL_BW (9 h) was 185.5 g. For the same molecule, the APTT (9 h) was 16.9 s, the Bas (9 h) was 0% and the Eos (9 h) was 1%. It also gave a Fbg (9 h) of 221 mg/dL, a Hb (9 h) of 13.1 g/dL and a Ht (9 h) of 39.1%. It also gave a Lym (9 h) of 73%, an MCH (9 h) of 22.3 pg and an MCHC (9 h) of 33.6%. It also gave an MCV (9 h) of 66.5 fL, a Mono (9 h) of 8% and a Neu (9 h) of 18.4%. For the same molecule, the PT (9 h) was 12.3 s, the Plat (9 h) was 119.4 x10_4/uL and the RBC (9 h) was 589.2 x10_4/ul. The Ret (9 h) was 9.2%, the WBC (9 h) was 87.8 x10_2/uL and the KIDNEY_L (9 h) was 0.9 g. The KIDNEY_R (9 h) was 0.8 g, the KIDNEY_TOTAL (9 h) was 1.7 g and the LIVER (9 h) was 7.1 g. For the same molecule, the A/G (9 h) was 2.3, the ALP (9 h) was 772.8 IU/L and the ALT (9 h) was 42.4 IU/L. For the same molecule, the AST (9 h) was 68.8 IU/L, the BUN (9 h) was 12.2 mg/dL and the CRE (9 h) was 0.4 mg/dL. It also gave a Ca (9 h) of 10.2 mg/dL, a Cl (9 h) of 106.8 meq/L and a DBIL (9 h) of 0.08 mg/dL. The GLC (9 h) was 193 mg/dL, the IP (9 h) was 10.8 mg/dL and the K (9 h) was 5 meq/L. The LDH (9 h) was 69 IU/L, the Na (9 h) was 137 meq/L and the PL (9 h) was 113.8 mg/dL. It also gave an RALB (9 h) of 3.7 g/dL, a TBIL (9 h) of 0.9 mg/dL and a TC (9 h) of 61.6 mg/dL. For the same molecule, the TG (9 h) was 16 mg/dL, the TP (9 h) was 5.4 g/dL and the gamma-GTP (9 h) was 2 IU/L. It also gave a TERMINAL_BW (24 h) of 198.6 g, an APTT (24 h) of 17.8 s and a Bas (24 h) of 0%. The Eos (24 h) was 1%, the Fbg (24 h) was 221.4 mg/dL and the Hb (24 h) was 12.6 g/dL. It also gave a Ht (24 h) of 38.2%, a Lym (24 h) of 75.2% and an MCH (24 h) of 21.5 pg. For the same molecule, the MCHC (24 h) was 33.1%, the MCV (24 h) was 64.8 fL and the Mono (24 h) was 9.2%. For the same molecule, the Neu (24 h) was 15%, the PT (24 h) was 11.8 s and the Plat (24 h) was 104.8 x10_4/uL. The RBC (24 h) was 588.8 x10_4/ul, the Ret (24 h) was 9.3% and the WBC (24 h) was 91 x10_2/uL. The KIDNEY_L (24 h) was 0.9 g, the KIDNEY_R (24 h) was 0.9 g and the KIDNEY_TOTAL (24 h) was 1.7 g. It also gave an LIVER (24 h) of 9.2 g, an A/G (24 h) of 1.9 and an ALP (24 h) of 893.8 IU/L. For the same molecule, the ALT (24 h) was 36.4 IU/L, the AST (24 h) was 62.4 IU/L and the BUN (24 h) was 18 mg/dL. For the same molecule, the CRE (24 h) was 0.5 mg/dL, the Ca (24 h) was 10.8 mg/dL and the Cl (24 h) was 104.2 meq/L. For the same molecule, the DBIL (24 h) was 0 mg/dL, the GLC (24 h) was 184 mg/dL and the IP (24 h) was 7.8 mg/dL. It also gave a K (24 h) of 4.6 meq/L, an LDH (24 h) of 110.8 IU/L and a Na (24 h) of 138.6 meq/L. The PL (24 h) was 133.4 mg/dL, the RALB (24 h) was 3.5 g/dL and the TBIL (24 h) was 0.3 mg/dL. For the same molecule, the TC (24 h) was 72.2 mg/dL, the TG (24 h) was 79.6 mg/dL and the TP (24 h) was 5.4 g/dL. The gamma-GTP (24 h) was 0.8 IU/L.

— ChEMBL document CHEMBL3885861, “Open TG-GATES”
